Target: NK1 receptor (Homo sapiens, UniProt P25103)
Test: NK1 receptor binding: inhibition of Substance P binding, Ki by the Chang-Prusoff equation
Text: The in vitro and in vivo NK1, NK2 and NK3 activities of the compounds of Formula 1 can be determined by various procedures known in the art, such as a test for their ability to inhibit the activity of the NK1 agonist Substance P. The percent inhibition of neurokinin agonist activity is the difference between the percent of maximum specific binding (“MSB”) and 100%. The percent of MSB is defined by the following equation, wherein “dpm” represents “disintegrations per minute”:
[formula] The concentration at which the compound produces 50% inhibition of binding is then used to determine an inhibition constant (“Ki”) using the Chang-Prusoff equation.
The activities (potencies) for the compounds of the invention are determined by measuring their Ki values. […] Even more preferred are compounds having average Ki values of from 0.01 nM to about 10 nM for the NK1 receptor. Especially preferred compounds have NK1 average Ki values of from 0.01 nM to about 3 nM. Even more especially preferred compounds have NK1 average Ki values of from 0.01 nM to about 0.3 nM.

Chain of NK1 receptor (P25103 whole entry, species assumed): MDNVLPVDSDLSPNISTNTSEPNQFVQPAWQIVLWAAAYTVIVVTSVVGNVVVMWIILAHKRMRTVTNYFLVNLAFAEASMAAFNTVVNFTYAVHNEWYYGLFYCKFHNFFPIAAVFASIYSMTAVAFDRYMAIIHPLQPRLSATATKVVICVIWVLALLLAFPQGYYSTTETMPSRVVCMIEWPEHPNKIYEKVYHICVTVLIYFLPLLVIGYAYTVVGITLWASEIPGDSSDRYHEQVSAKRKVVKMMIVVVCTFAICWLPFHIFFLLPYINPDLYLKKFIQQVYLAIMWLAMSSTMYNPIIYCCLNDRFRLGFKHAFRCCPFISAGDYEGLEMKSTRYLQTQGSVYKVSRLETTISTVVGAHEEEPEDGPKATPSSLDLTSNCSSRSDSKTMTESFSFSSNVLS

Row | Structure (SMILES) | Ki [nM]
1 | C[C@@H](OC[C@@]1(c2ccccc2)CC[C@@H]2NC(=O)OCCC2N1)c1cc(C(F)(F)F)cc(C(F)(F)F)c1 (some centres unmarked) [Compound 6a] | 0.14
2 | C[C@@H](OC[C@@]1(c2ccccc2)C[C@H]2NC(=O)NC2CN1)c1cc(C(F)(F)F)cc(C(F)(F)F)c1 (some centres unmarked) [Compound 1a] | 0.23
3 | C[C@@H](OC[C@@]1(c2ccccc2)CCC2OC(=O)NC2N1)c1cc(C(F)(F)F)cc(C(F)(F)F)c1 (single isomer, unassigned) [Compound 4b] | 0.32
4 | C[C@@H](OC[C@@]1(c2ccccc2)CC[C@@H]2NC(=O)CC2N1)c1cc(C(F)(F)F)cc(C(F)(F)F)c1 (some centres unmarked) [Compound 5a] | 0.23
5 | C[C@@H](OC[C@@]1(c2ccccc2)CC[C@@H]2NC(=O)CCC2N1)c1cc(C(F)(F)F)cc(C(F)(F)F)c1 (some centres unmarked) [Compound 7] | 0.3
6 | C[C@@H](OC[C@@]1(c2ccccc2)CCC2OC(=O)NC2N1)c1cc(C(F)(F)F)cc(C(F)(F)F)c1 (single isomer, unassigned) [Compound 4a] | 0.62
7 | C[C@@H](OC[C@@]1(c2ccccc2)C[C@H]2OC(=O)NC2CN1)c1cc(C(F)(F)F)cc(C(F)(F)F)c1 (some centres unmarked) [Compound 9a] | 0.28
8 | C[C@@H](OC[C@@]1(c2ccccc2)CC[C@@H]2NC(=O)NCC2N1)c1cc(C(F)(F)F)cc(C(F)(F)F)c1 (some centres unmarked) [Compound 8] | 0.36

From patent publication US7498438B2, “Fused ring NK1 antagonists” (Schering Corporation, priority 2004, dated 2009)
